Laboratory results from patent US20050154046A1, “Methods of treating an inflammatory-related disease” (priority 2004, published 2005).

Tests used:
IL-10 = IL-10 secretion (ELISA) in THP-1 cells; type: cell-based, human
Description: Viability of cells was examined under microscope after trypan blue staining.
Viability of cells was examined by trypan blue exception assay.

[1] = system: idiopathic inflammatory bowel disease; type: in vivo, human
Experimental: The first diagnosis was performed at North Shore University Hospital Manhasset, Long Island, N.Y. in 1999 by colonoscope. Major symptoms included diarrhea, loose stool and bleeding while their overall condition of health was considered excellent. Clinical-activity index (Table 5) (113) was determined to be between 7 and 8. Their physician prescribed hydrocortisone foam, which they administered for 10 days according to doctor's instructions. […] In early 2002, they went to a well-known and respected Chinese Medical Hospital in Beijing where Flexible Sigmoidoscopy was performed. Again, they were diagnosed as having active inflammatory bowel disease.
At this time, as previous treatments had no effect, their physician prescribed several traditional Chinese medicines. They administered these for several months, yet no improvement of their symptoms resulted. During the period of February 2000 to the summer of 2002, they also tried various other traditional Chinese medicines due to the continued and very troublesome nature of their disease, but nothing was successful. Upon returning to the United States in 2002, they went to the Mount Sinai Medical Center, a nationally recognized American center for the treatment of inflammatory bowel disease. In October 2002, their new physician again performed a colonoscope, together with a histological examination of two biopsy samples (A and B) (FIG. 8, panel A, before the treatment).
These included skin itch, abdominal cramping, pain and bleeding. They then asked their physician for advice and was instructed to use this medication on an intermittently. However, the side effects continued actually worsened each time the medication was used. They then halted all application of this medication.
The patient voluntarily administered Meisoindigo at a recommended dose of 25 mg, once a day for a scheduled three weeks of treatment. […] After nine weeks of remission (three weeks on the medicine, three weeks off of the medicine, and three weeks on the medicine again), the patient again visited their physician and requested a Flexible Sigmoidoscopy to determine if their remission was subjective or objective. The Flexible Sigmoidoscopy was performed on Nov. 4, 2003. After reviewing the results their physician concluded that their inflammation completely arrested.

mouse vaginal epithelium = assay: Mitotic index in estrogen-stimulated vaginal epithelium of female mice; type: in vivo, Kunming mice; settings: 200.0 mg/kg orally once a day, 3 days; percent of mitotic cells
Description: (§1) Materials: Meisoindigo was synthesized, purified and its structure characterized by Natrogen Therapeutics, Inc. The purity of the compound was 98.5% as described in the Examples above. A suspension of Meisoindigo was freshly prepared in 0.5% sodium methylcellulose and given orally for the animal tests described below. Other chemicals used in the following experiments were purchased from Sigma.
(§2) Pathogen-free female Kunming mice at 12 weeks of age with body weights from 22 to 25 grams were housed 5 per cage, and given, ad libitum, fresh tap water and commercial rodent pellets. Animal rooms were controlled at 24±2° C. with a relative humidity of 60±5% and a 12 hour light/dark cycle (07:00-19:00 hr).
Anti-mitotic Effects of Meisoindigo on Mouse Vaginal Epithelium: Sixty Kunming female mice were randomly divided into 5 groups, 20 in one control group, and 10 in 4 drug-tested groups. All mice were given estrogen at a dose of 0.2 mg/animal for 3 days to allow vaginal epithelial cells to develop under the stimulation of estrogen hormone. Meisoindigo was freshly prepared as a suspension in 0.5% of sodium methylcellulose. The drug was given orally at doses of 50, 100, and 200 mg/kg, respectively, once a day for 3 days. Methotrexate (MTX) was used as a positive control at a dose of 1 mg/kg, i.p. once a day for the same period of time. […] The mitotic index (percent of mitotic cells) was calculated.

IL-1β = IL-1β secretion (ELISA) in LPS-stimulated THP-1 cells; type: cell-based, human
Experimental: It was prepared in a solution of dimethyl sulfoxide (DMSO), and stored under −20° C. for the experiments in vitro. Human monocytic cell line, THP-1 (90), was purchased from ATCC. The cells were maintained according to the supplier's instructions. Approximately 1×10^5 cells/ml were cultured at 37° C., 5% CO2 for 24 hours in Modified RPMI-1640 Medium (Invitrogen) supplemented with 10% FBS.
Viability of cells was examined under microscope after trypan blue staining. Protein levels of IL-1β secreted into the culture media by the cells were then measured by ELISA and calculated from its standard curve using an assay Kit from R&D Systems according to instructions provided by the supplier.
Statistical Analysis: All data were expressed as a mean±SD. Statistical significance of any difference between the control (LPS) and experimental groups was determined by the Student's t-test. P values between the 2 groups must be at least smaller than 0.05 to be considered statistically significant.
1) Effects of Meisoindigo and NATURA on the expression/secretion of cytokines IL-1β, IL-6, IL-10: The human monocytic THP-1 cells grown exponentially were stimulated with or without 1 μM of lipopolysaccharide (LPS, Sigma), and exposed for 24 hours to different concentrations of Meisoindigo and NATURA (from 31.25 nM and 62.5 nM), respectively. Viability of cells was examined by trypan blue exception assay.

[2] = system: scale epithelial cells of mouse-tails; assay: Mouse-tail model: granular layer formation in scale epithelial cells; type: in vivo, Kunming mice; settings: 13 days
Description: as §1, §2
Effect of Meisoindigo on Epidermal Cell Differentiation in Mouse Tails: Sixty female Kunming mice were randomly divided into 5 groups, 20 in one control group, and 10 in 4 drug-tested groups. Meisoindigo was freshly prepared as a suspension in 0.5% of sodium methylcellulose. The drug was given orally at doses of 50, 100, and 200 mg/kg, respectively, once a day for 13 days. Methotrexate (MTX) was used as a positive control at a dose of 1 mg/kg, i.p. once every 2 days, for the same period of time. The same volume and vehicle for Meisoindigo suspension were used as a negative control. […] Slides were prepared for histological examination as originally described by Bosman et. al., (106). The slides were prepared by cutting the tails into longitudinal sections, and Hematoxylin and Eosin (H&E) stained. The slides were then examined with a light microscope to evaluate the degree of orthokeratosis (OK) and epidermal hyperplasia. The former was done by measuring the horizontal length of the fully developed granular layer stratum granulosum within an individual scale in relation to its total length. Drug activity was defined by the increase of the positive scale cells containing granular layer stratum granulosum between two folliculus pili.

[3] = 25 mg once a day, before treatment 0
[4] = 25 mg once a day, before treatment 1
[5] = 25 mg once a day, before treatment 2

## CN1C(=O)/C(=C2/C(=O)Nc3ccccc32)c2ccccc21 [Meisoindigo]
IL-10; 0.0625 μM, THP-1 cells
  increase in the IL-10 secretion: Approximately 60%
IL-10; 62.5 nM, LPS-treated THP-1 cells, 24 h
  increase of IL-10 secretion at maximal stimulation: approximately 2 fold
IL-10; 31.25 and 62.5 nM, 24 h
  effect on IL-10 production: promoted production
IL-10; LPS-stimulated THP-1 cells, LPS alone −18.27
  IL-10 (Stimulation), Percentage of Maximal Response Without Cytotoxicity: 201.97 ± 11.2%
IL-10; similar concentrations (as low as 31.25 nM), FIG. 6A
  elevation of LPS-suppressed IL-10: ~2 fold
[1]; 25 mg once a day, after the first three doses
  clinical response: complete remission
[1]; [3]
  Patient Score After Treatment: Abdominal tenderness: 0
  Patient Score After Treatment: Nocturnal diarrhea: 0
[1]; [4]
  Patient Score After Treatment: Abdominal pain or cramping: 0
  Patient Score After Treatment: Fecal incontinence: 0
  Patient Score After Treatment: Need for antidiarrhea drugs: 0
[1]; [5]
  Patient Score After Treatment: Diarrhea (No. of daily stools): 0
  Patient Score After Treatment: General well-being: 0
  Patient Score After Treatment: Visible blood in stool (% of movements): 0
[1]; after nine weeks of remission (three weeks on, three off, three on)
  Flexible Sigmoidoscopy / pathological examination after treatment: inactive chronic protocolitis suggestive of idiopathic inflammatory bowel disease
[1]; human, in vivo
  total amount of drug needed to obtain a complete cure of the inflammatory bowel disease: 525 mg
Mouse vaginal epithelium
  Mitotic Index (X ± SD): 16.06±2.66
IL-1β; 31.25 nM, 24 h, LPS-stimulated THP-1 cells
  reduction of the LPS mediated IL-1β secretion: over 50%
IL-1β; LPS-stimulated THP-1 cells, LPS alone 100.00
  IL-1β (Inhibition), Percentage of Maximal Response Without Cytotoxicity: 48.76 ± 3.68%
IL-1β; as low as 31.25 nM (31.25 and 62.5 nM in FIG. 6), 24 h
  effect on IL-1β production: significantly inhibit
IL-1β; up to 8 μM
  further reduction of IL-1β secretion on increasing the concentration: did not result in further reduction
[2]; 50.0 mg/kg orally once a day
  Granulous Scales (X ± SD): 22.37 ± 6.20
[2]; 100.0 mg/kg orally once a day
  Granulous Scales (X ± SD): 25.98 ± 4.12
[2]; 200.0 mg/kg orally once a day
  Granulous Scales (X ± SD): 31.30 ± 7.92
